Results taken from patent publication US12091425B2 (AMGEN INC., priority 2016, dated 2024).

Columns and labels:
[1] = test system: OPM-2 human multiple myeloma cell line; test: Cell Viability Assay (OPM-2 10 FBS); type: cell-based; conditions: OPM-2 cells, 16 h, CellTiter-Glo
How it was run: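 OPM-2 myeloma cells, 3000/well in medium with 10% FBS, exposed to serially diluted compounds for 16 h at 37° C./5% CO2. Viability read by CellTiter-Glo luminescence; IC50 from 4-parameter logistic fit.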

[2] = molecular target: T1, Mcl-1/Bim interaction, recombinant human Mcl-1 (171-327) (Homo sapiens, UniProt Q07820); test: Cell free Mcl-1: Bim Affinity Assay (Mcl-1 HTRF); type: binding
T1 construct: made in house
T1 sequence (Q07820 171-327): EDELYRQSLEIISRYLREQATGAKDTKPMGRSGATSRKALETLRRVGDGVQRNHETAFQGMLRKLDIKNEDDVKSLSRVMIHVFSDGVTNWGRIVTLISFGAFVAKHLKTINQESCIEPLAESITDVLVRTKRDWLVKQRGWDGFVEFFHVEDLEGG
How it was run: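 Compounds were mixed with the protein and a biotinylated Bim peptide spanning human residues 51-76. Plates were left overnight, then TR-FRET signal was measured. A four-parameter sigmoidal model applied to duplicate competition data gave IC50.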

[3] = TR-FRET, 0.1 nM Mcl-1 (171-327), 0.05 nM biotin-Bim (51-76)
[4] = cell free Mcl-1:Bim TR-FRET, recombinant human Mcl-1 (171-327)

IC50 ([1]; Homo sapiens, OPM-2, 16 h)	IC50 [2, 3]	IC50 [2, 4]	IC50 [1]	SMILES
18200 nM	2.96 nM	–	–	CN(C)CCNC(=O)CO[C@@H]1/C=C/CCCS(=O)(=O)NC(=O)c2ccc3c(c2)N(C[C@@H]2CC[C@H]21)C[C@@]1(CCCc2cc(Cl)ccc21)CO3 [Example 212, 2-(((1S,3′R,6′R,7′R,8′E)-6-chloro-13′,13′-dioxido-15′-oxo-3,4-dihydro-2H-spiro[naphthalene-1,22′-[20]oxa[13]thia[1,14]diazatetracyclo[14.7.2.0^3,6.0^19,24]pentacosa [8,16,18,24]tetraen]-7′-yl)oxy)-N-(2-(dimethylamino)ethyl)acetamide]
131 nM	–	0.188 nM	–	COC(=O)CC1C(C)CC=CC(O)C2CCC2CN2CC3(CCCc4cc(Cl)ccc43)COc3ccc(cc32)C(=O)NS1(=O)=O (stereo not drawn) [Example 647]
–	0.297 nM	–	208 nM	O=C1NS(=O)(=O)[C@@H]2CCC[C@H]2C/C=C/[C@H](O)[C@@H]2CC[C@H]2CN2C[C@@]3(CCCc4cc(Cl)ccc43)COc3ccc1cc32 (single isomer, unassigned) [Example 325]
2270 nM	1.9 nM	–	–	CC(=O)O[C@H]1/C=C/C[C@@H]2CCCN2S(=O)(=O)NC(=O)c2ccc3c(c2)N(C[C@@H]2CC[C@H]21)C[C@@]1(CCCc2cc(Cl)ccc21)CO3 (single isomer, unassigned) [Example 346]
–	–	0.554 nM	285 nM	CO[C@H](C)C[C@@H]1CC/C=C/[C@H](OC)[C@@H]2CC[C@H]2CN2C[C@@]3(CCCc4cc(Cl)ccc43)COc3ccc(cc32)C(=O)NS1(=O)=O (single isomer, unassigned) [Example 549]
123 nM	0.4 nM	–	–	COCCOC1C=CCC2COCCC2S(=O)(=O)NC(=O)c2ccc3c(c2)N(CC2CCC21)CC1(CCCc2cc(Cl)ccc21)CO3 (single isomer, unassigned) [Example 322]
860 nM	0.425 nM	–	–	COCCNC(=O)CO[C@H]1/C=C/C[C@H](C)[C@@H](C)S(=O)(=O)NC(=O)c2ccc3c(c2)N(C[C@@H]2CC[C@H]21)C[C@@]1(CCCc2cc(Cl)ccc21)CO3 [Example 298, 2-(((1S,3′R,6′R,7′S,8′E,11′S,12′R)-6-chloro-11′,12′-dimethyl-13′,13′-dioxido-15′-oxo-3,4-dihydro-2H-[spiro[naphthalene-1,22′-20]oxa[13]thia[1,14]diazatetracyclo[14.7.2.0^3,6.0^19,24]pentacosa [8,16,18,24]tetraen]-7′-yl)oxy)-N-(2-methoxyethyl)acetamide]
–	–	0.28 nM	854 nM	C[C@H](O)C[C@@H]1CC/C=C/[C@H](O)[C@@H]2CC[C@H]2CN2C[C@@]3(CCCc4cc(Cl)ccc43)COc3ccc(cc32)C(=O)NS1(=O)=O (single isomer, unassigned) [Example 546]
130 nM	0.259 nM	–	–	C[C@H]1C/C=C\[C@H](O)[C@@H]2CC[C@H]2CN2C[C@@]3(CCCc4cc(Cl)ccc43)COc3ccc(cc32)C(=O)NS(=O)(=O)[C@H]1C[C@H]1CCCO1 (single isomer, unassigned) [Example 136]
2510 nM	–	0.481 nM	–	COC(C)CC1CCC=CC(OC)C2CCC2CN2CC3(CCCc4cc(Cl)ccc43)COc3ccc(cc32)C(=O)NS1(=O)=O (single isomer, unassigned) [Example 552]

SMILES	IC50 ([1]; Homo sapiens, OPM-2, 16 h)	IC50 [2, 3]	IC50 [2, 4]	IC50 [1]
CC(C)OC(=O)CC1C(C)CC=CC(O)C2CCC2CN2CC3(CCCc4cc(Cl)ccc43)COc3ccc(cc32)C(=O)NS1(=O)=O (single isomer, unassigned) [Example 566]	–	–	0.384 nM	282 nM
O=C1NS(=O)(=O)C[C@@H](C2CC2)C/C=C/[C@H](O)[C@@H]2CC[C@H]2CN2C[C@@]3(CCCc4cc(Cl)ccc43)COc3ccc1cc32 (single isomer, unassigned) [Example 683]	–	–	2.31 nM	2090 nM
